According to patent US10590121B2, “Kinase inhibitors and methods for making and using” (Rigel Pharmaceuticals, Inc., priority 2017, dated 2020):

What was measured:
[1] = system: LPS induced IL-23 (p19/p40) in DC cells differentiated from human PBMC; test: IL23-p19 ELISA, dendritic cells (DC differentiated from human PBMC), IFNγ primed, LPS stimulated; format: cell-based; conditions: human PBMC-derived dendritic cells, 1 μg/ml LPS, 18 hours, 10 pt
Summary of the method: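 Human PBMC-derived DCs (GM-CSF 100 ng/ml + IL-4 20 ng/ml, 7 days) were primed 24 h with IFNγ 50 ng/ml, pre-incubated 1 h with compound, then stimulated 18 h with LPS 1 μg/ml at 37° C. Supernatant IL-23 was measured by sandwich chemiluminescent ELISA (anti-p19 capture, anti-p40 detection); cytotoxicity was checked by CellTiter-Glo.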

[2] = system: LPS induced IL23p19 in THP-1 cells; test: LPS Induced IL23p19 in THP-1 Cells (with IFNγ Primed) Assay; format: cell-based; conditions: Homo sapiens; THP-1 cells primed with IFNγ 50 ng/mL, 1 μg/mL LPS, 18 hours, 10 pt; read-out: IL23-p19 ELISA, THP1-IFNy, LPS, 10 pt EC50
Summary of the method: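 THP-1 cells were primed with IFNγ (50 ng/mL, ~18 h), pre-incubated 1 h with compound, then stimulated 18 h with 1 μg/mL LPS at 37° C. Supernatant IL-23p19 was measured by chemiluminescent sandwich ELISA, and EC50 was fitted. Toxicity was checked on the remaining cells with Cell Titer Glo.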

| SMILES | EC50 [1] | EC50 [2] |
| --- | --- | --- |
| CN(CCN1CCOCC1)c1ccc(NC(=O)c2ccc(-c3cn[nH]c3)o2)c(N2CCCCC2)c1 [I-70, N-(4-(methyl(2-morpholinoethyl)amino)-2-(piperidin-1-yl)phenyl)-5-(1H-pyrazol-4-yl)furan-2-carboxamide] | 1.92 µM | 1.44 µM |
| O=C(Nc1cnc(N2CCOCC2)cc1N1CCCCC1)c1cccc(-c2cn[nH]c2)n1 [I-42, N-(6-morpholino-4-(piperidin-1-yl)pyridin-3-yl)-6-(1H-pyrazol-4-yl)picolinamide] | 3.08 µM | 1.04 µM |
| O=C(Nc1cc(OCCN2CCOCC2)ccc1N1CCCCC1)c1cccc(-c2cn[nH]c2)n1 [I-27, N-(5-(2-morpholinoethoxy)-2-(piperidin-1-yl)phenyl)-6-(1H-pyrazol-4-yl)picolinamide] | 0.857 µM | 2.99 µM |
| CN1CCN(c2ccc(NC(=O)c3cccc(-c4cn[nH]c4)n3)c(N3CCCCC3)c2)CC1 [I-1, N-(4-(4-methylpiperazin-1-yl)-2-(piperidin-1-yl)phenyl)-6-(1H-pyrazol-4-yl)picolinamide] | 0.843 µM | 0.308 µM |
| O=C(Nc1ccc(CCN2CCOCC2)cc1N1CCCCC1)c1cccc(-c2cn[nH]c2)n1 [I-54, N-(4-(2-morpholinoethyl)-2-(piperidin-1-yl)phenyl)-6-(1H-pyrazol-4-yl)picolinamide] | 0.163 µM | 0.093 µM |
| O=C(Nc1ccc(N2CCOCC2)cc1N1CCCC1)c1csc(-c2cn[nH]c2)n1 [I-24, N-(4-morpholino-2-(pyrrolidin-1-yl)phenyl)-2-(1H-pyrazol-4-yl)thiazole-4-carboxamide] | 0.794 µM | 0.836 µM |
| O=C(Nc1cc(CC(=O)N2CCOCC2)ccc1N1CCCCC1)c1csc(-c2cn[nH]c2)n1 [I-65, N-(5-(2-morpholino-2-oxoethyl)-2-(piperidin-1-yl)phenyl)-2-(1H-pyrazol-4-yl)thiazole-4-carboxamide] | 0.124 µM | 0.195 µM |
| O=C(Nc1cc(C(=O)N2CCOCC2)ccc1N1CCCCC1)c1csc(-c2cn[nH]c2)n1 [I-59, N-(5-(morpholine-4-carbonyl)-2-(piperidin-1-yl)phenyl)-2-(1H-pyrazol-4-yl)thiazole-4-carboxamide] | 0.294 µM | 0.253 µM |
| O=C(Nc1cc(C(F)(F)CN2CCOCC2)ccc1N1CCCCC1)c1csc(-c2cn[nH]c2)n1 [I-35, N-(5-(1,1-difluoro-2-morpholinoethyl)-2-(piperidin-1-yl)phenyl)-2-(1H-pyrazol-4-yl)thiazole-4-carboxamide] | 2.6 µM | 1.08 µM |
| O=C(Nc1cc(C(F)(F)CN2CCOCC2)ccc1N1CCCCC1)c1ccc(-c2cn[nH]c2)o1 [I-34, N-(5-(1,1-difluoro-2-morpholinoethyl)-2-(piperidin-1-yl)phenyl)-5-(1H-pyrazol-4-yl)furan-2-carboxamide] | 6.62 µM | 1.54 µM |
| CN1CCN(c2ccc(NC(=O)c3ccc(-c4cn[nH]c4)o3)c(N3CCCCC3)c2)CC1 [I-2, N-(4-(4-methylpiperazin-1-yl)-2-(piperidin-1-yl)phenyl)-5-(1H-pyrazol-4-yl)furan-2-carboxamide] | 0.12 µM | 0.0368 µM |
| O=C(Nc1cc(CN2CCOCC2)ccc1N1CCCCC1)c1ccc(-c2cn[nH]c2)o1 [I-61, N-(5-(morpholinomethyl)-2-(piperidin-1-yl)phenyl)-5-(1H-pyrazol-4-yl)furan-2-carboxamide] | 3.84 µM | 0.767 µM |
| CC1(O)CCN(c2cc(N3CCOCC3)ccc2NC(=O)c2cccc(-c3cn[nH]c3)n2)CC1 [I-16, N-(2-(4-hydroxy-4-methylpiperidin-1-yl)-4-morpholinophenyl)-6-(1H-pyrazol-4-yl)picolinamide] | 1.72 µM | 0.741 µM |
| O=C(Nc1ccc(CC(=O)N2CCOCC2)cc1N1CCCCC1)c1ccc(-c2cn[nH]c2)o1 [I-52, N-(4-(2-morpholino-2-oxoethyl)-2-(piperidin-1-yl)phenyl)-5-(1H-pyrazol-4-yl)furan-2-carboxamide] | 3.17 µM | 1.06 µM |
| O=C(Nc1cc(C(=O)N2CCOCC2)ccc1N1CCCCC1)c1cccc(-c2cn[nH]c2)n1 [I-57, N-(5-(morpholine-4-carbonyl)-2-(piperidin-1-yl)phenyl)-6-(1H-pyrazol-4-yl)picolinamide] | 1.15 µM | 0.498 µM |
| O=C(Nc1ccc(N2CCOCC2)cc1N1CCOCC1)c1cccc(-c2cn[nH]c2)n1 [I-13, N-(2,4-dimorpholinophenyl)-6-(1H-pyrazol-4-yl)picolinamide] | 14.4 µM | 1.73 µM |
| O=C(Nc1cnc(N2CCOCC2)cc1N1CCCCC1)c1csc(-c2cn[nH]c2)n1 [I-44, N-(6-morpholino-4-(piperidin-1-yl)pyridin-3-yl)-2-(1H-pyrazol-4-yl)thiazole-4-carboxamide] | 0.229 µM | 0.222 µM |
| COc1ccc(N2CCOCC2)cc1NC(=O)c1csc(-c2cn[nH]c2)n1 [I-41, N-(2-methoxy-5-morpholinophenyl)-2-(1H-pyrazol-4-yl)thiazole-4-carboxamide] | 9.22 µM | 3.92 µM |
| O=C(Nc1cc(CCN2CCOCC2)ccc1N1CCCCC1)c1csc(-c2cn[nH]c2)n1 [I-68, N-(5-(2-morpholinoethyl)-2-(piperidin-1-yl)phenyl)-2-(1H-pyrazol-4-yl)thiazole-4-carboxamide] | 0.0476 µM | 0.0625 µM |
